Experimental data: the supplement of paper PMC8967900

test system: ALL-PO; test: selective drug sensitivity score (sDSS, relative to normal bone marrow) (sDSS (score)); higher = more potent and effective on the cell line relative to normal bone marrow cells; settings: 72 h
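Note: ALL cell lines in 384-well plates, five doses spanning 10,000-fold, each plate scaled between vehicle and 100 µmol/L benzalkonium chloride controls, sDSS an adapted area-under-curve metric.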

Row | Structure (SMILES) | selective drug sensitivity score
1 | CCOC(=O)CCNc1cc(N2CCc3ccccc3CC2)nc(-c2ccccn2)n1 [GSK-J4] (top concentration 100000 nM) | -7.18
2 | Cc1cc(Nc2cc(CN3CCOCC3)c3nc(C)c(Cc4ccc(Cl)cc4F)n3n2)n[nH]1 [Gandotinib] (top concentration 10000 nM) | 4.98
3 | NC(=O)NO [Hydroxyurea] (top concentration 1000000 nM) | -4.54
4 | Cc1ccc(NC(=O)c2ccc(CN3CCN(C)CC3)cc2)cc1Nc1nccc(-c2cccnc2)n1 [Imatinib] (top concentration 10000 nM) | 1.86
5 | CC(C)NC[C@@H](C(=O)N1CCN(c2ncnc3c2[C@H](C)C[C@H]3O)CC1)c1ccc(Cl)cc1 [Ipatasertib] (top concentration 10000 nM) | 6.7
6 | CCC(C)n1ncn(-c2ccc(N3CCN(c4ccc(OCC5COC(Cn6cncn6)(c6ccc(Cl)cc6Cl)O5)cc4)CC3)cc2)c1=O (stereo not given) [Itraconazole] (top concentration 5000 nM) | 1.88
7 | Cc1sc2c(c1C)C(c1ccc(Cl)cc1)=N[C@@H](CC(=O)OC(C)(C)C)c1nnc(C)n1-2 [JQ1] (top concentration 10000 nM) | 4.62
8 | CCNC(=O)c1noc(-c2cc(C(C)C)c(O)cc2O)c1-c1ccc(CN2CCOCC2)cc1 [Luminespib] (top concentration 1000 nM) | 4.6
9 | O=C(c1cccc(Cl)c1F)N1CCN(Cc2cccc(Nc3nccs3)n2)CC1 [MK-8745] (top concentration 10000 nM) | 9.9
10 | Cc1ccc(NC(=O)c2ccc(CN3CCN(C)CC3)cc2)cc1Nc1nc(-c2cccnc2)cs1 [Masitinib] (top concentration 10000 nM) | -1.28
11 | CCN(CC)CCCC(C)Nc1c2ccc(Cl)cc2nc2ccc(OC)cc12 (stereo not given) [Mepacrine] (top concentration 50000 nM) | 0.2
12 | COc1ccc(-c2ccc3ncc4c(c3c2)n(-c2ccc(N3CCNCC3)c(C(F)(F)F)c2)c(=O)n4C)cn1 [NVP-BGT226] (top concentration 1000 nM) | 6.72
13 | COc1nc(N)nc2c1ncn2[C@@H]1O[C@H](CO)[C@@H](O)[C@@H]1O [Nelarabine] (top concentration 10000 nM) | 0.08
14 | Cc1cn(-c2cc(NC(=O)c3ccc(C)c(Nc4nccc(-c5cccnc5)n4)c3)cc(C(F)(F)F)c2)cn1 [Nilotinib] (top concentration 10000 nM) | 4.6
15 | NC(=O)c1cccc2cn(-c3ccc(C4CCCNC4)cc3)nc12 (stereo not given) [Niraparib] (top concentration 10000 nM) | 6.08
16 | COc1ccc(C[C@H](NC(=O)[C@H](C)NC(=O)CN2CCOCC2)C(=O)N[C@@H](Cc2ccccc2)C(=O)[C@@]2(C)CO2)cc1 [ONX-0914] (top concentration 10000 nM) | -3.9
17 | CC(=O)c1cnc2ccc(-c3cc(Cl)c(O)c(Cl)c3)nc2c1N[C@H]1CC[C@H](CN(C)C)CC1 [OTS167] (top concentration 1000 nM) | -2.12
18 | COC(=O)C[C@](O)(CCCC(C)(C)O)C(=O)O[C@@H]1C(OC)=C[C@]23CCCN2CCc2cc4c(cc2[C@H]13)OCO4 [Omacetaxine] (top concentration 10000 nM) | -3.38

test system: CCRF-CEM; test: as above; settings: 72 h

Row | Structure (SMILES) | selective drug sensitivity score
19 | CCOC(=O)CCNc1cc(N2CCc3ccccc3CC2)nc(-c2ccccn2)n1 [GSK-J4] (top concentration 100000 nM) | -6.68
20 | Cc1cc(Nc2cc(CN3CCOCC3)c3nc(C)c(Cc4ccc(Cl)cc4F)n3n2)n[nH]1 [Gandotinib] (top concentration 10000 nM) | 5.68
21 | NC(=O)NO [Hydroxyurea] (top concentration 1000000 nM) | 3.96
22 | Cc1ccc(NC(=O)c2ccc(CN3CCN(C)CC3)cc2)cc1Nc1nccc(-c2cccnc2)n1 [Imatinib] (top concentration 10000 nM) | -0.44
23 | CC(C)NC[C@@H](C(=O)N1CCN(c2ncnc3c2[C@H](C)C[C@H]3O)CC1)c1ccc(Cl)cc1 [Ipatasertib] (top concentration 10000 nM) | 10.7
24 | CCC(C)n1ncn(-c2ccc(N3CCN(c4ccc(OCC5COC(Cn6cncn6)(c6ccc(Cl)cc6Cl)O5)cc4)CC3)cc2)c1=O (stereo not given) [Itraconazole] (top concentration 5000 nM) | -1.22
25 | Cc1sc2c(c1C)C(c1ccc(Cl)cc1)=N[C@@H](CC(=O)OC(C)(C)C)c1nnc(C)n1-2 [JQ1] (top concentration 10000 nM) | 1.32
26 | CCNC(=O)c1noc(-c2cc(C(C)C)c(O)cc2O)c1-c1ccc(CN2CCOCC2)cc1 [Luminespib] (top concentration 1000 nM) | -0.5
27 | O=C(c1cccc(Cl)c1F)N1CCN(Cc2cccc(Nc3nccs3)n2)CC1 [MK-8745] (top concentration 10000 nM) | 12.1
28 | Cc1ccc(NC(=O)c2ccc(CN3CCN(C)CC3)cc2)cc1Nc1nc(-c2cccnc2)cs1 [Masitinib] (top concentration 10000 nM) | 2.42
29 | CCN(CC)CCCC(C)Nc1c2ccc(Cl)cc2nc2ccc(OC)cc12 (stereo not given) [Mepacrine] (top concentration 50000 nM) | -5
30 | COc1ccc(-c2ccc3ncc4c(c3c2)n(-c2ccc(N3CCNCC3)c(C(F)(F)F)c2)c(=O)n4C)cn1 [NVP-BGT226] (top concentration 1000 nM) | 10.1
31 | COc1nc(N)nc2c1ncn2[C@@H]1O[C@H](CO)[C@@H](O)[C@@H]1O [Nelarabine] (top concentration 10000 nM) | 4.18
32 | Cc1cn(-c2cc(NC(=O)c3ccc(C)c(Nc4nccc(-c5cccnc5)n4)c3)cc(C(F)(F)F)c2)cn1 [Nilotinib] (top concentration 10000 nM) | 2.1
33 | NC(=O)c1cccc2cn(-c3ccc(C4CCCNC4)cc3)nc12 (stereo not given) [Niraparib] (top concentration 10000 nM) | 4.68
34 | COc1ccc(C[C@H](NC(=O)[C@H](C)NC(=O)CN2CCOCC2)C(=O)N[C@@H](Cc2ccccc2)C(=O)[C@@]2(C)CO2)cc1 [ONX-0914] (top concentration 10000 nM) | 3.1
35 | CC(=O)c1cnc2ccc(-c3cc(Cl)c(O)c(Cl)c3)nc2c1N[C@H]1CC[C@H](CN(C)C)CC1 [OTS167] (top concentration 1000 nM) | 2.48
36 | COC(=O)C[C@](O)(CCCC(C)(C)O)C(=O)O[C@@H]1C(OC)=C[C@]23CCCN2CCc2cc4c(cc2[C@H]13)OCO4 [Omacetaxine] (top concentration 10000 nM) | 3.02

test system: COG-LL-317; test: as above; settings: 72 h

Row | Structure (SMILES) | selective drug sensitivity score
37 | CCOC(=O)CCNc1cc(N2CCc3ccccc3CC2)nc(-c2ccccn2)n1 [GSK-J4] (top concentration 100000 nM) | -2.78
38 | Cc1cc(Nc2cc(CN3CCOCC3)c3nc(C)c(Cc4ccc(Cl)cc4F)n3n2)n[nH]1 [Gandotinib] (top concentration 10000 nM) | 8.68
39 | NC(=O)NO [Hydroxyurea] (top concentration 1000000 nM) | 15.4
40 | Cc1ccc(NC(=O)c2ccc(CN3CCN(C)CC3)cc2)cc1Nc1nccc(-c2cccnc2)n1 [Imatinib] (top concentration 10000 nM) | 1.36
41 | CC(C)NC[C@@H](C(=O)N1CCN(c2ncnc3c2[C@H](C)C[C@H]3O)CC1)c1ccc(Cl)cc1 [Ipatasertib] (top concentration 10000 nM) | 11
42 | CCC(C)n1ncn(-c2ccc(N3CCN(c4ccc(OCC5COC(Cn6cncn6)(c6ccc(Cl)cc6Cl)O5)cc4)CC3)cc2)c1=O (stereo not given) [Itraconazole] (top concentration 5000 nM) | -2.12
43 | Cc1sc2c(c1C)C(c1ccc(Cl)cc1)=N[C@@H](CC(=O)OC(C)(C)C)c1nnc(C)n1-2 [JQ1] (top concentration 10000 nM) | 6.62
44 | CCNC(=O)c1noc(-c2cc(C(C)C)c(O)cc2O)c1-c1ccc(CN2CCOCC2)cc1 [Luminespib] (top concentration 1000 nM) | 7.4
45 | O=C(c1cccc(Cl)c1F)N1CCN(Cc2cccc(Nc3nccs3)n2)CC1 [MK-8745] (top concentration 10000 nM) | 12.9
